The values that follow are results of earlier work, collected in patent publication US10117939B2, “Pharmaceutical compositions comprising nebivolol or a nebivolol analogue” (MYLAN PHARMACEUTICALS ULC, priority 2007, dated 2018).

Molecules are shown by their SMILES.

The conditions of the series: as described in EP 0 744 946.

In the case of `Cl.O[C@H](CNC[C@@H](O)[C@H]1CCc2cc(F)ccc2O1)[C@@H]1CCc2cc(F)ccc2O1` (relative stereo) [nebivolol hydrochloride, ((±))-(R*(S*(S*—(S*))))-(alpha),(alpha)′-(iminobis(methylene)bis-(6-fluoro-3,4-dihydro-2H-1-benzopyran-2-methanol)], the “Dissolution (in words)” value is on record as “poor dissolution”. `Cl.O[C@H](CNC[C@@H](O)[C@H]1CCc2cc(F)ccc2O1)[C@@H]1CCc2cc(F)ccc2O1` [“micronized” nebivolol hydrochloride]: the “Dissolution (in words)” value is listed as “even worse than material in the normal crystalline form”.
